Where two headings read alike, the source gives them in different places.
Legend:
SHV-1 β-lactamase = SHV-1 β-lactamase (Klebsiella pneumoniae, UniProt P0AD64); assay: Cell-free β-lactamase inhibition study (nitrocefin hydrolysis); assay type: biochemical; conditions: 10 min pre-incubation at 37° C., nitrocefin substrate
Experimental: (§1) Cell-Free-β-Lactamase Inhibition Study
(§2) Assays are performed with β-lactamases expressed in the pET system (Novagen, San Diego, Calif.) without signal peptides. They contain an N-terminal hexa-Histidine tag that is used for purification on Ni-NTA (Qiagen, Hilden, Germany). The compounds are prepared as 50 mM stocks in DMSO and diluted into buffer P1 (50 mM phosphate, pH 7) to a final concentration of 10% DMSO. All further dilutions are done in P2 (P1 with 10% DMSO). Enzyme and compound dilutions are pre-incubated for 10 min at 37° C. and the reaction is started with the addition of pre-warmed (37° C.) nitrocefin at a final concentration of […]. […] The initial velocity is determined and IC50 values are calculated using non-linear regression and sigmoidal dose response analysis with the PRISM 4.0 software (Graphpad Software Inc., San Diego, Calif.).

TEM-1 β-lactamase = TEM-1 β-lactamase (Escherichia coli, UniProt P62593); assay: as above; assay type: biochemical; conditions: 10 min pre-incubation at 37° C., nitrocefin substrate
Experimental: as §1, §2

TEM-1 β-lactamase, sequence (P62593 whole entry, looked up): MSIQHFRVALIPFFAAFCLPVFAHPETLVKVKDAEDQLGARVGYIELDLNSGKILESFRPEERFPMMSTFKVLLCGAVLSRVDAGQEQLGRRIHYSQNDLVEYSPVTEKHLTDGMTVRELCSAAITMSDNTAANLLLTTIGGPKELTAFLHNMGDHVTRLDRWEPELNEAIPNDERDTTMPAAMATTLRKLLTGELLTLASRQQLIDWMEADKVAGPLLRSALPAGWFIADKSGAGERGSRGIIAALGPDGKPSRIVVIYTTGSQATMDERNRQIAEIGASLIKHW
SHV-1 β-lactamase, sequence (P0AD64 whole entry, looked up): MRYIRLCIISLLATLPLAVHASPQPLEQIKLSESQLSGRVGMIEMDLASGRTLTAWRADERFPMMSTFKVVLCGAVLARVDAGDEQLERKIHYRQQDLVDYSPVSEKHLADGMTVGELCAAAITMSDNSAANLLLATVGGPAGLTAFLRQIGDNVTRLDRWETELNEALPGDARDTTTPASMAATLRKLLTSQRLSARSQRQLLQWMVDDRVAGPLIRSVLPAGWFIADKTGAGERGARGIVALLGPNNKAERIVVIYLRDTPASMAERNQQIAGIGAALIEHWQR

SMILES	IC50 (SHV-1 β-lactamase; SHV-1, read-out: IC50) [nM]	IC50 (TEM-1 β-lactamase) [nM]	IC50 (SHV-1 β-lactamase; IC50, SHV-1) [nM]
COC(=O)C1(C/C=C/c2ccccc2)C(=CC(=O)O)O[C@@H]2CC(=O)N21 (single isomer, unassigned) [Example 36]	642	408	–
O=C1OC(CI)CC1=C1O[C@@H]2CC(=O)N2C1C(=O)OCc1ccccc1 (single isomer, unassigned) [Example 41]	0.4	0.2	–
CCCC(C(=O)O)=C1O[C@@H]2CC(=O)N2C1C(=O)O (stereo partly drawn) [Example 51, (5R)-3-(1-Carboxy-butylidene)-7-oxo-4-oxa-1-aza-bicyclo[3.2.0]heptane-2-carboxylic acid]	436	254	–
O=C(OCc1ccccc1)C1C(=C2COC(CI)C2)O[C@@H]2CC(=O)N12 (stereo partly drawn) [Example 59, (5R)-3-[5-Iodomethyl-dihydro-furan-3-ylidene]-7-oxo-4-oxa-1-aza-bicyclo[3.2.0]heptane-2-carboxylic acid benzyl ester]	3600	4390	–
COC(=O)C1C(=C(CCCc2ccccc2)C(=O)O)O[C@@H]2CC(=O)N12 (stereo partly drawn) [Example 53, (5R)-3-(1-Carboxy-4-phenyl-butylidene)-7-oxo-4-oxa-1-aza-bicyclo[3.2.0]heptane-2-carboxylic acid methyl ester]	219	72.8	–
O=C1OC(CI)CC1=C1O[C@@H]2CC(=O)N2C1C(=O)OCc1ccccc1 (single isomer, unassigned) [Example 42]	0.8	1.7	–
O=CC=C1O[C@@H]2CC(=O)N2C1(CC=CCO)C(=O)OCc1ccccc1 (single isomer, unassigned) [Example 9]	1040	828	–
CC(C)(C)C(=O)OCOC(=O)C1C(=C(C/C=C/c2ccccc2)C(=O)O)O[C@@H]2CC(=O)N12 (stereo partly drawn) [Example 37, (5R)-3-(1-Carboxy-4-phenyl-but-3-enylidene)-7-oxo-4-oxa-1-aza-bicyclo[3.2.0]heptane-2-carboxylic acid 2,2-dimethyl-propionyloxymethyl ester]	141	44.2	–
C=CCC(C(=O)O)=C1O[C@@H]2CC(=O)N2C1C(=O)OC (stereo partly drawn) [Example 32, (5R)-3-(1-Carboxy-but-3-enylidene)-7-oxo-4-oxa-1-aza-bicyclo[3.2.0]heptane-2-carboxylic acid methyl ester]	339	122	–
O=C(OCc1ccccc1)C1C(=C(CO)C/C=C/c2ccccc2)O[C@@H]2CC(=O)N12 (stereo partly drawn) [Example 39, (5R)-3-(1-Hydroxymethyl-4-phenyl-but-3-enylidene)-7-oxo-4-oxa-1-aza-bicyclo[3.2.0]heptane-2-carboxylic acid benzyl ester]	5610	4120	–
O=C(O)C(C/C=C/c1ccccc1)=C1O[C@@H]2CC(=O)N2C1C(=O)OCc1ccccc1 (stereo partly drawn) [Example 26, (5R)-3-[1-Carboxy-4-phenyl-but-3-enylidene]-7-oxo-4-oxa-1-aza-bicyclo[3.2.0]heptane-2-carboxylic acid benzyl ester]	36.3	9.2	–
C=CCC1(C(=O)OCc2ccccc2)C(=CC=O)O[C@@H]2CC(=O)N21 (stereo partly drawn) [Example 2, (5R)-2-Allyl-7-oxo-3-[2-oxo-ethylidene]-4-oxa-1-aza-bicyclo[3.2.0]heptane-2-carboxylic acid benzyl ester]	–	945	–
CCCC(C(=O)O)=C1O[C@@H]2CC(=O)N2C1C(=O)OC (stereo partly drawn) [Example 54, (5R)-3-(1-Carboxy-butylidene)-7-oxo-4-oxa-1-aza-bicyclo[3.2.0]heptane-2-carboxylic acid methyl ester]	295	97	–
CC(C)(C)C(=O)OCOC(=O)C1(C/C=C/c2ccccc2)C(=CC=O)O[C@@H]2CC(=O)N21 (stereo partly drawn) [Example 19, (5R)-7-oxo-3-(2-oxo-ethylidene)-2-(3-phenyl-allyl)-4-oxa-1-aza-bicyclo[3.2.0]heptane-2-carboxylic acid 2,2-dimethyl-propionyloxymethyl ester]	617	871	–
CC1C/C(=C2\O[C@@H]3CC(=O)N3C2C(=O)OCc2ccccc2)C(=O)O1 (single isomer, unassigned) [Example 46]	0.5	0.4	–
COC(=O)C1C(=C(C=O)C/C=C/c2ccccc2)O[C@@H]2CC(=O)N12 (some centres unmarked) [Example 13]	–	639	–
C=CCC(C=O)=C1O[C@@H]2CC(=O)N2C1(CC=C)C(=O)OCc1ccccc1 (stereo partly drawn) [Example 3, (5R)-2-Allyl-3-[1-formyl-but-3-enylidene]-7-oxo-4-oxa-1-aza-bicyclo[3.2.0]heptane-2-carboxylic acid benzyl ester]	–	8390	–
CC1C/C(=C2\O[C@@H]3CC(=O)N3C2C(=O)OCc2ccccc2)C(=O)O1 (single isomer, unassigned) [Example 45]	–	1.7	3.4
C=CCC(C=O)=C1O[C@@H]2CC(=O)N2C1C(=O)OCc1ccccc1 (stereo partly drawn) [Example 1, (5R)-3-(1-Formyl-but-3-enylidene)-7-oxo-4-oxa-1-aza-bicyclo[3.2.0]heptane-2-carboxylic acid benzyl ester]	–	66.6	–
C=CC/C(CO)=C1/O[C@@H]2CC(=O)N2C1C(=O)OCc1ccccc1 (stereo partly drawn) [Example 38a, (5R)-3-[1-Hydroxymethyl-but-3-en-(Z)-ylidene]-7-oxo-4-oxa-1-aza-bicyclo[3.2.0]heptane-2-carboxylic acid benzyl ester]	1710	1950	–
O=CC=C1O[C@@H]2CC(=O)N2C1(CC=CCO)C(=O)OCc1ccccc1 (single isomer, unassigned) [Example 8]	–	5640	–
CC1CC(=C2O[C@@H]3CC(=O)N3C2C(=O)O)C(=O)O1 (stereo partly drawn) [Example 50, (5R)-3-(5-Methyl-2-oxo-dihydro-furan-3-ylidene)-7-oxo-4-oxa-1-aza-bicyclo[3.2.0]heptane-2-carboxylic acid]	–	4.2	–
COC(=O)C1/C(=C2/CC(CI)OC2=O)O[C@@H]2CC(=O)N12 (some centres unmarked) [Mixture of Example 43 and Example 44]	4.3	–	–
O=CC(C/C=C/c1ccccc1)=C1O[C@@H]2CC(=O)N2C1C(=O)OCc1ccccc1 (stereo partly drawn) [Example 4, (5R)-3-[1-Formyl-4-phenyl-but-3-enylidene]-7-oxo-4-oxa-1-aza-bicyclo[3.2.0]heptane-2-carboxylic acid benzyl ester]	–	89	–
C=CCC1(C(=O)OCc2ccccc2)/C(=C/CO)O[C@@H]2CC(=O)N21 (stereo partly drawn) [Example 40, (5R)-2-Allyl-3-[2-hydroxy-ethylidene]-7-oxo-4-oxa-1-aza-bicyclo[3.2.0]heptane-2-carboxylic acid benzyl ester]	–	23600	–
CC(=O)OCC=CCC1(C(=O)OCc2ccccc2)C(=CC=O)O[C@@H]2CC(=O)N21 (stereo partly drawn) [Example 12, (5R)-2-(4-Acetoxy-but-2-enyl)-7-oxo-3-[2-oxo-ethylidene]-4-oxa-1-aza-bicyclo[3.2.0]heptane-2-carboxylic acid benzyl ester]	–	5900	–
CC(=O)OCC=CCC(C=O)=C1O[C@@H]2CC(=O)N2C1C(=O)OCc1ccccc1 (stereo partly drawn) [Example 10, (5R)-3-[5-Acetoxy-1-formyl-pent-3-enylidene]-7-oxo-4-oxa-1-aza-bicyclo[3.2.0]heptane-2-carboxylic acid benzyl ester]	–	140	–
CC(=O)OCC=CCC1(C(=O)OCc2ccccc2)C(=CC=O)O[C@@H]2CC(=O)N21 (stereo partly drawn) [Example 11, (5R)-2-(4-Acetoxy-but-2-enyl)-7-oxo-3-[2-oxo-ethylidene]-4-oxa-1-aza-bicyclo[3.2.0]heptane-2-carboxylic acid benzyl ester]	–	7310	–
